The values that follow come from patent publication US6576638B1, “Use of substance P antagonists in the treatment of the adenocarcinomas” (Biopolis S.p.A., priority 1999, dated 2003).

Test [1] has as its system PC-3 human prostatic cancer cell lines. Description: Tumoral mass weight of orthotopic PC-3 prostate tumors in nude mice. In kind it is in vivo, male athymic nude mices. Conditions: compared to either control groups or SP treated mice; p<0.05; from 3 up to 180 days. Here is the method:
(§1) For this studies has been used male athymic nude mices (Harlan). The mices were housed in laminar flow cabinet under pathogenic free conditions and used at 4-5 weeks of age.
(§2) The PC-3 human prostatic cancer cell lines (ECACC) were mantained in Minimum essential medium (GIBCO BRL) For in vivo studies, tumor cells in exponential growth phase were harvested by a 120 seconds treatment with tripsyn in 0.02% EDTA. After that the cells were resuspended in saline solution. 20 μl (10^5 cells) of saline solution was inoculated in nude mice prostate. The tumors were taken at different times (three up to 180 days) for analysis.
(§3) Animals were divided in groups (10 animals each one) and treated with different solutions:
(§4) physiological solution, -Sustance P (1 ng up to 1 mg), -L-703,606 (1 ng up to 1 mg), −L-703,606+Leuprolide Acetate (using dosages reported in table 1 and 2).
(§5) The treatments were made at different time (one at day until one at week). For different periods of time (three days up to 180 days).
The animals were maitained under observation for three up to 180 days. Autoptic examinations were performed in all animals and the tumoral mass weighed.

The test system is the same in test [2]. Description: Vascular density quantification (CD31 immunohistochemistry) in orthotopic PC-3 prostate tumors in nude mice. Format: in vivo, male athymic nude mices. As to conditions: compared to control groups (L-703,606 also vs SP treated mice); p<0.05; 1 ng up to 1 mg; three up to 180 days. As for the experimental part:
as §1, §2, §3, §4, §5
Frozen sections of tumors have been fixed in Acetone, acetone/chloroform, acetone.
The presence of new blood vessels has been highlighted using the Rat anti-Mouse CD31 antibody, a Goat anti-Rat POX as a secondary antibody and DAB as a chromogen substrate. For quantification of blood vessels an image analysis system was employed.

Test [3] addresses T1, NK-1 receptor (Rattus norvegicus, UniProt P14600).
T1 construct: pA2>6.0 both in murine and human tissues; host or cells: rat ('murine') tissues (not specified)
As to conditions: rat tissues; cited from earlier work.

Test [4] has as its target T2, NK-1 receptor (Homo sapiens, UniProt P25103).
T2 construct: pA2>6.0 both in murine and human tissues; host or cells: human tissues (not specified)
Conditions: human tissues; cited from earlier work.

Where no end group is shown, it is not given here.

T1 sequence (P14600 whole entry): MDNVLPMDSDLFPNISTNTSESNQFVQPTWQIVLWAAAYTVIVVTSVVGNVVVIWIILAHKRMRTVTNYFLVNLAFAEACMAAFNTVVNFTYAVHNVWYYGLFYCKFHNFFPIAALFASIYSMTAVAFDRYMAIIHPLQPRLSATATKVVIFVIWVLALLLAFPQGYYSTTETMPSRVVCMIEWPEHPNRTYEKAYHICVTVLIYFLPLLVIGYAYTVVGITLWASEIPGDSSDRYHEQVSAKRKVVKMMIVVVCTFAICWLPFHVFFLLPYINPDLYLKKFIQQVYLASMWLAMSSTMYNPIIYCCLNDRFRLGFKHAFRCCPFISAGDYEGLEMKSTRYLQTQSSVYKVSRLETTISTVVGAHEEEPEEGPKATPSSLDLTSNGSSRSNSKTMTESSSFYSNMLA
T2 sequence (P25103 whole entry): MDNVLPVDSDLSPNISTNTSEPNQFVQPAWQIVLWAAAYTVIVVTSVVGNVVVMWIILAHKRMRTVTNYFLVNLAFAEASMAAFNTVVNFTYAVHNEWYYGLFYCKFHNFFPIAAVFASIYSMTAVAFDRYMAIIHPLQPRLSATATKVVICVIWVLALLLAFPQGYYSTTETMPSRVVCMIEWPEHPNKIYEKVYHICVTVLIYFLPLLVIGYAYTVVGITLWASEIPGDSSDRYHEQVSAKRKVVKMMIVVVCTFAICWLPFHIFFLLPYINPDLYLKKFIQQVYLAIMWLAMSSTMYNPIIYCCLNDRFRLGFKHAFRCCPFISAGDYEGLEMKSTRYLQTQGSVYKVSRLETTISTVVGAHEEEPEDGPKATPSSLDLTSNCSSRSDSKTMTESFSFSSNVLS

In the case of `Ic1ccccc1CN[C@@H]1C2CCN(CC2)[C@@H]1C(c1ccccc1)c1ccccc1` (racemic) [L-703,606], in test [1], the tumoral mass weight entry was “statistically significant reduction”. Also, the “CD 31 values (blood vessels density)” value in test [2] is given as “statistically significant reduction”.

Turning to `Cc1cc(C)cc(C(=O)N2CC[C@H](NCCc3ccccc3)C[C@H]2Cc2ccccc2)c1` [CGP 47899], the pA2 rat at NK-1 receptor [3] was more than 6.0. The pA2 human at NK-1 receptor [4] is listed as more than 6.0.

On to `COc1ccccc1CN[C@H]1C2CCN(CC2)[C@H]1C(c1ccccc1)c1ccccc1` [CP 96345], for which, at NK-1 receptor [3], the pA2 rat is 6.8. On NK-1 receptor [4], the pA2 human is 9.5.

With `COc1ccccc1CN[C@H]1CCCN[C@H]1c1ccccc1` [CP 99994], the pA2 rat at NK-1 receptor [3] was 6.1. Also, the pA2 human at NK-1 receptor [4] is reported as 8.9.

`CN(Cc1ccccc1)C(=O)[C@H](Cc1ccc2ccccc2c1)NC(=O)[C@@H]1C[C@@H](O)CN1C(=O)c1cn(C)c2ccccc12` [FK 888]: on NK-1 receptor [3], the pA2 rat is recorded as 6.0. Besides, at NK-1 receptor [4], the pA2 human is reported as 9.1.

On to `COc1ccc(-n2nnnc2C(F)(F)F)cc1CN[C@H]1CCCN[C@H]1c1ccccc1` [GR 205171], for which the pA2 rat at NK-1 receptor [3] is given as more than 6.0. Moreover, at NK-1 receptor [4], the pA2 human was more than 6.0.

For `Cc1ccc(CC(=O)N(C)[C@H](Cc2ccc3ccccc3c2)C(=O)N[C@@H]2CCCC[C@@H]2NC(=O)c2c[nH]c3ccccc23)cc1` [MEN 11467], the pA2 rat at NK-1 receptor [3] is recorded as more than 6.0. For the same compound, at NK-1 receptor [4], the pA2 human is listed as more than 6.0.

`COc1ccccc1CC(=N)N1C[C@@H]2C(=O)CCC(c3ccccc3)(c3ccccc3)[C@@H]2C1` [RP 67580]: the pA2 rat on NK-1 receptor [3] is 8.2. Further, at NK-1 receptor [4], the pA2 human is recorded as 7.2.

With `CC(C)Oc1cccc(CC(=O)N2CCC[C@](CC[N+]34CCC(c5ccccc5)(CC3)CC4)(c3ccc(Cl)c(Cl)c3)C2)c1` [SR 140333], the pA2 rat on NK-1 receptor [3] is on record as 7.4. For the same compound, at NK-1 receptor [4], the pA2 human was 9.8.

As to “substance P (RPKPQQFFGLM; ends and bridges not checked; UniProt P20366 58-68, looked up) [SP, substance P (SP), plays a role in angiogenesis stimulation]”, the “CD 31 values (blood vessels density)” value in test [2] is “statistically significant increase”.
